Structures can show the parent of a compound that is named as a salt.
How the values were obtained:
[1] = system: LP-1 cells; test: AnnexinV-FITC/PI apoptosis by flow cytometry; format: cell-based; conditions: VCR 0.5 ng/mL, 48 h
Description: LP-1 cells were first spread in 6-well plates at a density of 2×10^5 cells/well and incubated in the incubator for 24 h. After 24 h, 200 μL of Dar-Ps-VCR, Ps-VCR, and free VCR were added (the in-well concentration of VCR was 0.5 ng/mL), and the cells with only PBS were used as a control. After incubation in the incubator for 48 h, LP-1 cells were collected by centrifugation (800 rpm, 5 min) and washed twice with ice PBS, and finally 200 μL of Binding buffer was added to each sample to resuspend the cells (the cell density was approximately 10^6 cells/mL). After blowing uniformly, 100 μL was taken into the flow tube and 5 μL of AnnexinV-FITC and 10 μL of PI solution were added sequentially, and the cells were stained at room temperature and protected from light for 15 min, then 400 μL of PBS was added and mixed uniformly, and measured by flow cytometry within 1 h. The cells were then stained with PBS for 15 min at room temperature and protected from light for 15 min. Among them, the samples in the PBS group that were treated in a 50° C. water bath for 5 min and fixed with 4% paraformaldehyde for 5 min were used as the early apoptosis group and the late apoptosis group, respectively, and stained for 15 min by adding 5 μL of AnnexinV-FITC solution and 10 μL of PI solution, respectively.

[2] = system: LP-1 multiple myeloma cells; test: CCK-8 cytotoxicity; format: cell-based; conditions: LP-1 cells
Description: The in vitro anti-tumor activity of Dar-Ps-VCR against LP-1 multiple myeloma cells was determined using a CCK-8 kit, with MV4-11 cells as a control. LP-1 cells were first spread in 96-well plates (15,000/well) and placed in an incubator at 37° C. with 5% CO2 for 24 h. After that, 20 μL of Dar-Ps-VCR, Ps-VCR and free VCR containing different Dar surface densities were added to each well, and the final concentrations of VCR in the wells were 0.001, 0.01, 0.05, 0.1, 0.5, 1 and 10 ng/mL. After incubation at 37° C. for 48 h, 10 μL of CCK-8 solution was added to each well to continue the incubation for 4 h. Finally, its absorbance value at 492 nm was tested by an enzyme marker. Cell viability was calculated by the ratio of the absorbance value of the experimental group to the absorbance value of the cells incubated with the addition of PBS, and the experiment was performed in parallel for four groups (mean±SD, […]).

[3] = system: LP-1-Luc multiple myeloma mice; test: Anti-tumor effect in orthotopic LP-1-Luc multiple myeloma mice; format: in vivo
Description: Mice were simultaneously weighed.
To investigate the anti-tumor effect of Dar-Ps-VCR in […] LP-1-Luc multiple myeloma mice, treatment experiments were initiated when the bioluminescence intensity reached 1.2×10^6 p/sec/cm^2/sr on day 10 post-inoculation. There were two dosing regimens that maintained the same total VCR administration: one with a VCR dose of 0.25 mg/kg, one injection given on 4 days for a total of 4 injections, denoted as Dar-Ps-VCR (0.25 mg VCR equiv./kg, Q4d); and the other with a VCR dose of 0.50 mg/kg, one injection given on 8 days for a total of 2 injections, denoted as Dar-Ps-VCR (0.50 mg VCR equiv./kg, Q8d). Based on the first dosing regimen, equal VCR doses of Ps-VCR and free VCR, equal equivalents of Dar-Ps, and PBS were used as controls. Each treatment group consisted of 10 […] mice, of which 4 were used for bioluminescence imaging and 6 were used to monitor body weight and observe survival. […] At the end of drug administration, the tumors of mice in the non-targeted Ps-VCR and free VCR groups began to recur, and Luc bioluminescence signals increased rapidly, i.e., 157- and 53-fold by day 39, respectively.

Compound | apoptosis [1] | IC50 ([2]; Homo sapiens, 48 h, VCR concentration, read-out: LC50 (IC50)) | median survival ([3]; 0.25 mg VCR equiv./kg, Q4d (Dar-Ps: equal equivalents)) | increase of Luc bioluminescence signal ([3]; by day 39, 0.25 mg VCR equiv./kg, Q4d) | Luc signal during the administration treatment period ([3]; days 10-22) | cell survival ([2]; Dar concentration 9 μg/mL)
CC[C@]1(O)C[C@H]2CN(CCc3c([nH]c4ccccc34)[C@@](C(=O)OC)(c3cc4c(cc3OC)N(C=O)[C@H]3[C@@](O)(C(=O)OC)[C@H](OC(C)=O)[C@]5(CC)C=CCN6CC[C@]43[C@@H]65)C2)C1 [free VCR, vincristine sulfate] | 31.4% | 1.38 ng/mL | 52 days | 53 fold | no significant increase or even a slight decrease in Luc signal | –
free Dar: CD38-targeting monoclonal antibody daratumumab (Dar) | – | – | – | – | – | ~100%

From patent US12478586B2, “Small molecular drug-loaded polymer vesicle, preparation method therefor and use thereof” (SOOCHOW UNIVERSITY, priority 2020, dated 2025)
